In data set [1] the target is VEGFR1 (Homo sapiens, UniProt P17948). Nature of the data set: Recombinant kinase ELISA assay, VEGFR1. The format is biochemical. The following applies: recombinant human enzyme; ELISA-based assay, poly(Glu,Tyr 4:1) substrate. The procedure:
(§1) Full details for the generation of recombinant human KIT intracellular domain and other protein kinases (including Lyn, platelet derived growth factor receptor β, epidermal growth factor receptor, fibroblast growth factor receptor 1, Src, HCK, PYK, FES, Btk, Bmx, c-Ret, c-Fms, Syk, and c-Met) are provided in the Supplemental Methods (see Supporting Information; Methods S1). Experiments on ABL1, Akt1, protein kinase C-α, insulin-like growth factor receptor 1, and Pim1 were carried out by Proqinase (Germany). All other recombinant protein kinases were performed in-house using an enzyme-linked immunoassay; experimental details are provided in the Supplemental Methods (see Supporting Information; Methods S1).
A 96-well microtitre plate (Immulon 2HB; ThermoLifeScience, Finland) was coated overnight with 0.25 mg/ml poly(Glu,Tyr 4:1), rinsed twice with 250 µl of washing buffer (10 mM phosphate-buffered saline [pH 7.4] and 0.05% Tween 20) and dried for 2 hours at room temperature. […] Reactions were initiated upon introduction of the enzyme and terminated with the addition of one reaction volume (50 μl) of 100 mM EDTA per 5 M urea mix. […] The final reaction product was quantified by spectrophotometry at 450 nm.

Data set [2] addresses T1, Proline-rich Tyrosine kinase (FAK2/PYK2) (Homo sapiens, UniProt Q14289).
T1 construct: PYK2 (2-1006; BC042599); 6xHN (N); made in house; host or cells: baculovirus, Sf9 insect cells
Nature of the data set: Recombinant kinase ELISA assay, PYK2. The format is biochemical. The settings on record: recombinant human enzyme; ELISA-based assay, poly(Glu,Tyr 4:1) substrate. The procedure: as §1
(§2) The sequences encoding PDGF receptor β (residues 554–1106; GenBank accession no. BC032224), Lyn B (2–583; accession no. BC059394), fibroblast growth factor receptor 1 (572–959; accession no. BC018128), Src (2–536; accession no. BC011566), Btk (2–659; accession no. BC109079), Bmx (2–675; accession no. BC016652), c-Ret (713–1114; accession no. BC004257), c-Fms (538–972; BC047531), Syk (2–612; BC011399), Hck (2-526; accession no. BC014435), Fes (2-822; accession no. BC035357), PYK2 (2-1006; accession no. BC042599) and c-Met (949–1398; accession no. lifeseq3489592) were amplified by PCR from IMAGE cDNA clones purchased from Openbiosystems. […]
On the technique in general: An ELISA detects its analyte on a solid surface through an enzyme-linked reagent.

In data set [3] the target is T2, Hck (Homo sapiens, UniProt P08631).
T2 construct: Hck (2-526; BC014435); 6xHN (N); made in house; host or cells: baculovirus, Sf9 insect cells
T2 sequence (P08631 23-526 limits assumed): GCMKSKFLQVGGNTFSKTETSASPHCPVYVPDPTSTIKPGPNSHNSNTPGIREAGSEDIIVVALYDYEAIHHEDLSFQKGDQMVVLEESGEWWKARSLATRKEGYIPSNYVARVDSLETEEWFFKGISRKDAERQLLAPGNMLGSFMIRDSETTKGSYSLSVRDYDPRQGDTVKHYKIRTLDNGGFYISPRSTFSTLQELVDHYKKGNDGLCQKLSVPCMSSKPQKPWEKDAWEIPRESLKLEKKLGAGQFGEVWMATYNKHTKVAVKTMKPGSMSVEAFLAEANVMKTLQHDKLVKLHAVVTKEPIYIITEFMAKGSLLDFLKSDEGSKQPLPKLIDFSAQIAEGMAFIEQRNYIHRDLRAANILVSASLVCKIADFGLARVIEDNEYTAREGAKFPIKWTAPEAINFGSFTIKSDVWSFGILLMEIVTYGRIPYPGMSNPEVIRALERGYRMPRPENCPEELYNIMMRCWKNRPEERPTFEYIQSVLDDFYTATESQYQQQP
Nature of the data set: Recombinant kinase ELISA assay, Hck. The format is biochemical. The settings on record: recombinant human enzyme; ELISA-based assay, poly(Glu,Tyr 4:1) substrate. The procedure: as §1, §2

In data set [4] the target is T3, Akt1 (Homo sapiens, UniProt P31749).
T3 construct: purchased Proqinase (Germany)
T3 sequence (P31749 whole entry): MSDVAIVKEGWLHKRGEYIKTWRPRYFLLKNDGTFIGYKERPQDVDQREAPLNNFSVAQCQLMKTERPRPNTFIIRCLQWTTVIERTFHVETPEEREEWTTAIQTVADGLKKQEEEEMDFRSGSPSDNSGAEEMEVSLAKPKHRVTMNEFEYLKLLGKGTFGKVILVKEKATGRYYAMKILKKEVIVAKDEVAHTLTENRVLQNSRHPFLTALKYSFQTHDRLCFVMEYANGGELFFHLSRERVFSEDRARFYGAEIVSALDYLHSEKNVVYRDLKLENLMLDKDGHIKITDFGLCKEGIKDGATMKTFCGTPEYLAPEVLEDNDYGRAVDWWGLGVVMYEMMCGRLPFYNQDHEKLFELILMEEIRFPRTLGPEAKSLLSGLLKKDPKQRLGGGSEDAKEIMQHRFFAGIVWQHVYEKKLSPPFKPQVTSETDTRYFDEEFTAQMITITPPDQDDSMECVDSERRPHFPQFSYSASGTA
Nature of the data set: Recombinant kinase screen (Proqinase), Akt1. The format is biochemical. The settings on record: recombinant human enzyme; single experiment, kinase screen by Proqinase. The procedure:
as §1

Data set [5] deals with T4, Alk (Homo sapiens, UniProt Q9UM73).
T4 construct: expressed in transfected cells; host or cells: Ba/F3
T4 sequence (Q9UM73 19-1620, species assumed): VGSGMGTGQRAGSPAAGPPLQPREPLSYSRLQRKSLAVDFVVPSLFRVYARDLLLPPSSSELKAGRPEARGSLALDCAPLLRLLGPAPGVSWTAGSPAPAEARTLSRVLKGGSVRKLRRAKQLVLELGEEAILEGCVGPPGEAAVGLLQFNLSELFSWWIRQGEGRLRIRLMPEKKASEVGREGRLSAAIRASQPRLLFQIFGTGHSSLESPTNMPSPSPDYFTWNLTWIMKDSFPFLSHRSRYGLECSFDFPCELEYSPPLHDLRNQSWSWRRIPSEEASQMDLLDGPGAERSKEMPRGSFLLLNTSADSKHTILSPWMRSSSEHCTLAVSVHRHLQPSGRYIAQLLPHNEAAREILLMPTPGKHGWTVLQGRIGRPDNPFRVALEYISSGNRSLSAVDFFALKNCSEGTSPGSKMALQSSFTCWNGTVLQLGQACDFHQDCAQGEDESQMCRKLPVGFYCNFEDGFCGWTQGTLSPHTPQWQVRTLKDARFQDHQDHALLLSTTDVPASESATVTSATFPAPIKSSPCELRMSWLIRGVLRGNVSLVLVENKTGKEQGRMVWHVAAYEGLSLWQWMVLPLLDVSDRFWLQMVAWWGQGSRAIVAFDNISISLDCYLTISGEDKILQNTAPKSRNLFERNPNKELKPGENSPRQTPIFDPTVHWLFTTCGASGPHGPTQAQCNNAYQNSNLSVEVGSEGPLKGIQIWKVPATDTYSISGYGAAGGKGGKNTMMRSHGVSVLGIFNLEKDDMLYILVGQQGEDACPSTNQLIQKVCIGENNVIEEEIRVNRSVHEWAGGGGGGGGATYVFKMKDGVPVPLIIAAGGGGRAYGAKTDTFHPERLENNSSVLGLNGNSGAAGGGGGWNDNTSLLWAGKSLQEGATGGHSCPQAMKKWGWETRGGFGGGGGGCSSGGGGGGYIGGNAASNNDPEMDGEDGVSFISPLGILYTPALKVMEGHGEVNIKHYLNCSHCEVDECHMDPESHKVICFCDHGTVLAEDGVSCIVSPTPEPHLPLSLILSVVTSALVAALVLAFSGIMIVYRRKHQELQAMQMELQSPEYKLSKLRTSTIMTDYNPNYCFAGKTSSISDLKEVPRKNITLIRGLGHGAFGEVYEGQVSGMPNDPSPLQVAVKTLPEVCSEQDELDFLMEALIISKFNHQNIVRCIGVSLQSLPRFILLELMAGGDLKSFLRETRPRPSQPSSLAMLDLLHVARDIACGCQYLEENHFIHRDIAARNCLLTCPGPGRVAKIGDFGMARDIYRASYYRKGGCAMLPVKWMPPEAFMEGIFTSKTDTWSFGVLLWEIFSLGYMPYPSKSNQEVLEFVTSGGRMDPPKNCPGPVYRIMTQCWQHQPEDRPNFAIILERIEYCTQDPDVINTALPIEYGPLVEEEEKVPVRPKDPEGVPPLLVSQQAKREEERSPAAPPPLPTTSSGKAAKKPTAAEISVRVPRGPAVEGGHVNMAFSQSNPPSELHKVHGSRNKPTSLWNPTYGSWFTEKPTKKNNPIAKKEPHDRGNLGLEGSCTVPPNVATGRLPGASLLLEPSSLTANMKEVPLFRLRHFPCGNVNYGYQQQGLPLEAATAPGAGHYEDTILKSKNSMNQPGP
The data set is described as follows: Ba/F3 cell proliferation (WST-1), Alk. The following applies: Ba/F3 cells expressing the enzyme, read-out: Cell-based assay IC50, Alk. For orientation: Tetrazolium dyes change colour on reduction, which living cells bring about.

Data set [6] deals with Ba/F3 cells. Nature of the data set: IL-3-stimulated proliferation of Ba/F3 cells expressing human wild-type KIT. The format is cell-based. The following applies: Mus musculus, BaF3, read-out: IC50 for inhibition of IL-3-stimulated proliferation. The procedure:
Cells were grown for 48 hours at 37°C and then incubated with 10 µl/well of WST-1 reagent (Roche Applied Science, France) for 3 hours at 37°C. The amount of formazan dye formed was quantified by its absorbance at 450 nm using a scanning multiwell spectrophotometer (MultiSkan MS, Thermo-LabSystems, France). A blank well without cells was used as a background control for the spectrophotometer and all assays were performed in triplicate.

Data set [7] is described as follows: Solubility. The format is physicochemical. An excerpt:
The chemical name is 4-(4-methylpiperazin-1-ylmethyl)-N-[4-methyl-3-(4-pyridin-3ylthiazol-2-ylamino) phenyl]benzamide-mesylate methane sulfonic acid salt, and the chemical formula is C28H30N6OS·CH4O3S (Figure 1A). […] Fresh dilutions of masitinib were made for each experiment. The imatinib used in this study was purchased from Sequoia Research (UK).

Data set [8] concerns the target Fibroblast growth factor receptor 1 (Homo sapiens, UniProt P11362). Nature of the data set: Ba/F3 cell proliferation (WST-1), FGFR1. Set-up: expressed in transfected cells; host or cells: Ba/F3 (general description; not repeated for this kinase). The following applies: Ba/F3 cells expressing the enzyme, read-out: Cell-based assay IC50, Fibroblast growth factor receptor 1.

The target of data set [9] is PDGFRβ (Homo sapiens, UniProt P09619). Nature of the data set: Recombinant kinase ELISA assay, PDGFRβ. The following applies: recombinant human enzyme; ELISA-based assay, poly(Glu,Tyr 4:1) substrate. More on the design: PDGF receptor β (residues 554–1106; BC032224); 6xHN (N); made in house; host or cells: baculovirus, Sf9 insect cells. The format is biochemical. The procedure:
as §1

Structures are written as SMILES.

Chain of Fibroblast growth factor receptor 1 (P11362 22-822): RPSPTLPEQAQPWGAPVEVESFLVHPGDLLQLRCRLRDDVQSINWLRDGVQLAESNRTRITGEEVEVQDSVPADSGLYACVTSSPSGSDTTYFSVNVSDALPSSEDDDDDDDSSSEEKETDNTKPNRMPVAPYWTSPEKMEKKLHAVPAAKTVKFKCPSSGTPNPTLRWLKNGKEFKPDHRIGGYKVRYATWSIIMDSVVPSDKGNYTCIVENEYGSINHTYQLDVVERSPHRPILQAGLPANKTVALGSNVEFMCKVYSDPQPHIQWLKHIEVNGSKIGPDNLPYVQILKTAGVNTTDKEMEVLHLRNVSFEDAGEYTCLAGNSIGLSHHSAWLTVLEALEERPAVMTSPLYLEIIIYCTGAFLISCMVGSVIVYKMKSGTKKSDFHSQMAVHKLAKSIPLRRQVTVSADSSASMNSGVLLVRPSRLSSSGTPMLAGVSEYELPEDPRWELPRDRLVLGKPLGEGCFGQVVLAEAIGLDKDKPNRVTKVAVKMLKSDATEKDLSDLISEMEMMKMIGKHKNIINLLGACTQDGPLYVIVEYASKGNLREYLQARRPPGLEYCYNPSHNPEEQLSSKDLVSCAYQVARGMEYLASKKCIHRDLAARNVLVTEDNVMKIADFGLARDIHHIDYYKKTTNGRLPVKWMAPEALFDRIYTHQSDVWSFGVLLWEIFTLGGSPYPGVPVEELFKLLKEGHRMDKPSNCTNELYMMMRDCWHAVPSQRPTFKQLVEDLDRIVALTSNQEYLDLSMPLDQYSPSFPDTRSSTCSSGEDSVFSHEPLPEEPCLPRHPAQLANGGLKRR
Chain of PDGFRβ (P09619 554-1106): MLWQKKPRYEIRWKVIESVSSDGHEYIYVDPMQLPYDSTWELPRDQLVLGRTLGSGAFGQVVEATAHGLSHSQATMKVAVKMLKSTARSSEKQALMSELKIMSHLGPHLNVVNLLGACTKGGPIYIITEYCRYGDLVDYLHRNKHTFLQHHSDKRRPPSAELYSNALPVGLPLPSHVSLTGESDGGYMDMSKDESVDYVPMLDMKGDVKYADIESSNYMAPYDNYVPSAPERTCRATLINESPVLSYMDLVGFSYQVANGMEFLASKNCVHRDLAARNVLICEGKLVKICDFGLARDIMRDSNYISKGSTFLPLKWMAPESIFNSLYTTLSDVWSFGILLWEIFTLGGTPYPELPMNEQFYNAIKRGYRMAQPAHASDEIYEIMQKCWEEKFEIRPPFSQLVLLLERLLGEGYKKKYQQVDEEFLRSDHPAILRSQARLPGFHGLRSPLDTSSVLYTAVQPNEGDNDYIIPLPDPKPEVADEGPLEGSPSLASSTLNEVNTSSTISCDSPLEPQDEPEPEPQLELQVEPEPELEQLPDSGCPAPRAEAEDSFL
T1 sequence (Q14289 2-1006): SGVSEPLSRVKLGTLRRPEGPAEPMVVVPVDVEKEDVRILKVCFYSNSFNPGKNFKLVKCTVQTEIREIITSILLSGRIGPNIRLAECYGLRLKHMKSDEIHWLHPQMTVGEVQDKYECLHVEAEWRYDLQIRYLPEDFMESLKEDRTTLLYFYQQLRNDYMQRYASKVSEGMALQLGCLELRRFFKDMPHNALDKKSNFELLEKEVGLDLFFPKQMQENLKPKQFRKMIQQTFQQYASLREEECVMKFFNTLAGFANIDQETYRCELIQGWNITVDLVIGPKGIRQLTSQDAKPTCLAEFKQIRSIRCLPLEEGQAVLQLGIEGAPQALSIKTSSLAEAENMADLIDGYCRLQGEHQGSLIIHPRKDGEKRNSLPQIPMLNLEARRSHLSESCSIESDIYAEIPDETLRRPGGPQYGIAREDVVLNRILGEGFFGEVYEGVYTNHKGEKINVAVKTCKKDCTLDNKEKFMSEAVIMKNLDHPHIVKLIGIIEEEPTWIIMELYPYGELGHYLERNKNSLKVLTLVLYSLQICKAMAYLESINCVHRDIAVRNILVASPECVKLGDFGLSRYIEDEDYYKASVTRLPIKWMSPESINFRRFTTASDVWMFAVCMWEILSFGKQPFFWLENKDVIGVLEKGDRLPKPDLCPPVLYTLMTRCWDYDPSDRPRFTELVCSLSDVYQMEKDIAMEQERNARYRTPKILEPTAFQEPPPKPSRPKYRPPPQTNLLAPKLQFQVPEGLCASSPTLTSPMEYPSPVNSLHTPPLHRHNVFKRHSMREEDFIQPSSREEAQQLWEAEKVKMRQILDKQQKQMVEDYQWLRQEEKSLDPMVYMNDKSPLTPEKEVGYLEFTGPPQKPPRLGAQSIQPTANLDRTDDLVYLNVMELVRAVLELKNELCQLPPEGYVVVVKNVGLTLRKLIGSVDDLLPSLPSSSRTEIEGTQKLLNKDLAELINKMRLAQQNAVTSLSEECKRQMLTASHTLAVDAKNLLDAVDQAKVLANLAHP

For the compound `CS(=O)(=O)O.CS(=O)(=O)O.Cc1ccc(NC(=O)c2ccc(CN3CCN(C)CC3)cc2)cc1Nc1nc(-c2cccnc2)cs1` [masitinib, 4-(4-methylpiperazin-1-ylmethyl)-N-[4-methyl-3-(4-pyridin-3ylthiazol-2-ylamino)phenyl]benzamide-mesylate methane sulfonic acid salt], the IC50 in [1] is more than 10 µM; in data set [2], more than 10 µM; in data set [3], 2 ± 0.2 µM; in data set [4], more than 10 µM; in data set [5], 9 ± 0.18 µM; in [6] it was more than 5 µM. The IC50 turned out to be 7 ± 1.9 µM in [8] and 0.8 ± 0.12 µM in [9]. Moreover, the solubility result in data set [7] (0.1 M HCl) is recorded as “freely soluble”; in data set [7] (0.1 M NaOH) it was “practically insoluble”; in data set [7] (dimethylsulfoxide), “freely soluble”; in [7] (ethanol), “slightly soluble”; in data set [7] (n-hexane) it was “practically insoluble”; in [7] (propylene glycol), “slightly soluble”. The solubility entry in data set [7] (water) was “soluble”.

The values are drawn from publication PMC2746281 (PLoS ONE, 2009).
